Results as given in patent publication US20230303552A1, “ARYLSULFONYL DERIVATIVES AND THEIR USE AS MUSCARINIC ACETYLCHOLINE RECEPTOR M5 INHIBITORS” (Vanderbilt University, priority 2020, published 2023).

Biological target: T1, human M5 receptors (hM5) (Homo sapiens, UniProt P08912)
T1 construct: expressed in transfected cells
T1 sequence (P08912 1-532): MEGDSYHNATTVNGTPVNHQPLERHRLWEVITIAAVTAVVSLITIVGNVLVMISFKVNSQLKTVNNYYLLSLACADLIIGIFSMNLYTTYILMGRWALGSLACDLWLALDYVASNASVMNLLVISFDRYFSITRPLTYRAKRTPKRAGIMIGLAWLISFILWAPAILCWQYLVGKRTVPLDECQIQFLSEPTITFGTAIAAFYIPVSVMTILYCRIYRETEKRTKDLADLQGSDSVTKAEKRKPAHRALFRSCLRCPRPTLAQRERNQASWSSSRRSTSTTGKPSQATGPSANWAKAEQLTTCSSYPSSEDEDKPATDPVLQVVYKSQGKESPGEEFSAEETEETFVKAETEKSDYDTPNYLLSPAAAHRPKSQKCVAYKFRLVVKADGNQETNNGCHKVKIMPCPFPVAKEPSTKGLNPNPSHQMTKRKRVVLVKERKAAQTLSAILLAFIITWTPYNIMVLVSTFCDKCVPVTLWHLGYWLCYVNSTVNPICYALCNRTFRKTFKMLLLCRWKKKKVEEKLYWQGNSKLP
Assay: Cell-based functional calcium mobilization assay of mAChR M5 activity (inhibition of EC80 acetylcholine response) in CHO cells
Conditions: CHO cells stably expressing hM5; for IC50: calcium flux (Fluo-4), EC80 acetylcholine addition; for EC80 MIN: minimum of EC80 acetylcholine response, normalized to maximum acetylcholine response
Procedure, shortened: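 CHO cells stably expressing human M5, loaded with Fluo-4 AM in HBSS/20 mM HEPES/2.5 mM probenecid pH 7.4. Compound added 140 s before acetylcholine EC20, then EC80 added 125 s later. Calcium flux normalized to maximal acetylcholine response; IC50 from ten-point curves in the EC80 window.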

IC50	EC80 MIN	Structure (SMILES)
0.032 µM	2%	O=C(Nc1ccc2scnc2c1)[C@@H]1CCN(S(=O)(=O)c2ccc3c(c2)CCO3)C1 [Compound 24, (R)-N-(benzo[d]thiazol-5-yl)-1-((2,3-dihydrobenzofuran-5-yl)sulfonyl)pyrrolidine-3-carboxamide]
> 10 µM	42%	Cn1cnc2cc(S(=O)(=O)N3CCC(C(=O)Nc4ccc5scnc5c4)CC3)ccc21 [Compound 27, N-(benzo[d]thiazol-5-yl)-1-((1-methyl-1H-benzo[d]imidazol-5-yl)sulfonyl)piperidine-4-carboxamide]
> 10 µM	9%	Cn1nnc2cc(S(=O)(=O)N3CCC(C(=O)Nc4ccc5scnc5c4)CC3)ccc21 [Compound 28, N-(benzo[d]thiazol-5-yl)-1-((1-methyl-1H-benzo[d][1,2,3]triazol-5-yl)sulfonyl)piperidine-4-carboxamide]
> 10 µM	60%	O=C(Nc1ccc2scnc2c1)C1CCN(S(=O)(=O)c2ccc3c(c2)OC(F)(F)O3)CC1 [Compound 29, N-(benzo[d]thiazol-5-yl)-1-((2.2-difluorobenzo[d][1,3]dioxol-5-yl)sulfonyl)piperidine-4-carboxamide]
> 10 µM	57%	O=C(Nc1ccc2scnc2c1)C1CCN(S(=O)(=O)c2cccc(OC(F)(F)F)c2)CC1 [Compound 30, N-(benzo[d]thiazol-5-yl)-1-((3-(trifluoromethoxy)phenyl)sulfonyl)piperidine-4-carboxamide]
9.16 µM	5%	Cc1cccc(S(=O)(=O)N2CCC(C(=O)Nc3ccc4scnc4c3)CC2)c1 [Compound 31, N-(benzo[d]thiazol-5-yl)-1-(m-tolylsulfonyl)piperidine-4-carboxamide]
1.93 µM	3%	O=C(Nc1ccc2scnc2c1)C1CCN(S(=O)(=O)c2ccc(F)c(F)c2)CC1 [Compound 32, N-(benzo[d]thiazol-5-yl)-1-((3,4-difluorophenyl)sulfonyl)pip eridine-4-carboxamide]
> 10 µM	6%	Cc1ccccc1S(=O)(=O)N1CCC(C(=O)Nc2ccc3scnc3c2)CC1 [Compound 33, N-(benzo[d]thiazol-5-yl)-1-(o-tolylsulfonyl)piperidine-4-carboxamide]
> 10 µM	18%	COc1cccc(S(=O)(=O)N2CCC(C(=O)Nc3ccc4scnc4c3)CC2)c1 [Compound 34, N-(benzo[d]thiazol-5-yl)-1-((3-methoxyphenyl)sulfonyl)pi pendine-4-carboxamide]
0.083 µM	3%	Cc1cc(S(=O)(=O)N2CCC(C(=O)Nc3ccc4scnc4c3)CC2)cnc1Cl [Compound 35, N-(benzo[d]thiazol-5-yl)-1-((6-chloro-5-methylpyridin-3-yl)sulfonyl)piperidine-4-carboxamide]
> 10 µM	40%	Cn1ncc2cc(S(=O)(=O)N3CCC(C(=O)Nc4ccc5scnc5c4)CC3)cnc21 [Compound 36, N-(benzo[d]thiazol-5-yl)-1-((1-methyl-1H-pyrazolo[3,4-b]pyridin-5-yl)sulfonyl)piperidine-4-carboxamide]
> 10 µM	60%	Cc1noc2ncc(S(=O)(=O)N3CCC(C(=O)Nc4ccc5scnc5c4)CC3)cc12 [Compound 37, N-(benzo[d]thiazol-5-yl)-1-((3-methylisoxazolo[5,4-b]pyridin-5-yl)sulfonyl)piperidine-4-carboxamide]
> 10 µM	27%	O=C(Nc1ccc2scnc2c1)[C@@H]1CCN(S(=O)(=O)c2cccnc2)C1 [Compound 39, (R)-N-(benzo[d]thiazol-5-yl)-1-(pyridin-3-ylsulfonyl)pyrrolidine-3-carboxamide]
0.046 µM	2%	O=C(Nc1ccc2scnc2c1)C1CCN(S(=O)(=O)c2cc3c(cc2F)OCC3)CC1 [Compound 41, N-(benzo[d]thiazol-5-yl)-1-((6-fluoro-2,3-dihydrobenzofuran-5-yl)sulfonyl)piperidine-4-carboxamide]
0.039 µM	2%	O=C(Nc1ccc2scnc2c1)[C@@H]1CCN(S(=O)(=O)c2cc3c(cc2F)OCC3)C1 [Compound 42, (R)-N-(benz[d]thiazol-5-yl)-1-((6-fluoro-2,3-dihydrobenzofuran-5-yl)sulfonyl)pyrrolidine-3-carboxamide]
> 10 µM	37%	O=C(Nc1ccc2scnc2c1)C1CCN(S(=O)(=O)c2cccc3ncccc23)CC1 [Compound 46, N-(benzo[d]thiazol-5-yl)-1-(quinolin-5-ylsulfonyl)piperidine-4-carboxamide]

IC50	EC80 MIN	Structure (SMILES)
> 10 µM	47%	Cc1nc2ccc(S(=O)(=O)N3CCC(C(=O)Nc4ccc5scnc5c4)CC3)cc2s1 [Compound 47]
1.79 µM	5%	O=C(Nc1ccc2scnc2c1)C1CCN(S(=O)(=O)c2ccc3c(c2)OCCO3)CC1 [Compound 48, N-(benzo[d]thiazol-5-yl)-1-((2.3-dihydrobenzo[b][1,4]dioxin-6-yl)sulfonyl)piperidine-4-carboxamide]
> 10 µM	8%	Cc1cc2c(cc1S(=O)(=O)N1CCC(C(=O)Nc3ccc4scnc4c3)CC1)OCO2 [Compound 49, N-(benzo[d]thiazol-5-yl)-1-((6-methylbenzo[d][1,3]dioxol-5-yl)sulfonyl)pipcridinc-4-carboxamide]
1.85 µM	4%	O=C(Nc1ccc2scnc2c1)C1CCN(S(=O)(=O)c2ccc3c(c2)CCCO3)CC1 [Compound 50, N-(benzo[d]thiazol-5-yl)-1-(chroman-6-ylsulfonyl)pipcridinc-4-carboxamide]
3.53 µM	38%	N#Cc1cccc(S(=O)(=O)N2CCC(C(=O)Nc3ccc4scnc4c3)CC2)c1 [Compound 51, N-(benzo[d]thiazol-5-yl)-1-((3-cyanophenyl)sulfonyl)piperi dine4-carboxamide]
> 10 µM	24%	COc1ccccc1S(=O)(=O)N1CCC(C(=O)Nc2ccc3scnc3c2)CC1 [Compound 52, N-(benzo[d]thiazol-5-yl)-1-((2-methoxyphenyl)sulfonyl)pi peridine-4-carboxamide]
4.11 µM	4%	O=C(Nc1ccc2scnc2c1)C1CCN(S(=O)(=O)c2ccccc2OC(F)(F)F)CC1 [Compound 53, N-(benzo[d]thiazol-5-yl)-1-((2-(trifluoromethoxy)phenyl)sulfonyl)piperidine-4-carboxamide]
> 10 µM	51%	O=C(Nc1ccc2scnc2c1)C1CCN(S(=O)(=O)c2cccc(C(F)(F)F)c2)CC1 [Compound 54, N-(benzo[d]thiazol-5-yl)-1-((3-(trifluoromethyl)phenyl)sulfonyl)piperidine-4-carboxamide]
0.361 µM	3%	O=C(Nc1ccc2scnc2c1)[C@H]1CCN(S(=O)(=O)c2ccc3c(c2)CCO3)C1 [Compound 55, (S)-N-(benzo[d]thiazol-5-yl)-1-((2,3-dihydrobenzofuran-5-yl)sulfonyl)pyrrolidine-3-carboxamide]
0.719 µM	2%	O=C(Nc1ccc2scnc2c1)[C@H]1CCN(S(=O)(=O)c2cc3c(cc2F)OCC3)C1 [Compound 56, (S)-N-(benzo[d]thiazol-5-yl)-1-((6-fluoro-2.3-dihydrobenzofuran-5-yl)sulfonyl)pyrrolidine-3-carboxamide]
0.333 µM	2%	O=C(Nc1ccc2scnc2c1)C1CCN(S(=O)(=O)c2ccc3c(c2Br)CCO3)CC1 [Compound 57, N-(benzo[d]thiazol-5-yl)-1-((4-bromo-2,3-dihydrobenzofuran-5-yl)sulfonyl)piperidine-4-carboxamide]
> 10 µM	34%	O=C(Nc1ccc2scnc2c1)C1CCN(S(=O)(=O)c2ccc(Br)c3c2OCC3)CC1 [Compound 58, N-(benzo[d]thiazol-5-yl)-1-((4-bromo-2,3-dihydrobenzofuran-7-yl)sulfonyl)piperidine-4-carboxamide]
0.487 µM	2%	O=C(Nc1ccc2scnc2c1)[C@@H]1CCN(S(=O)(=O)c2ccc3c(c2Br)CCO3)C1 [Compound 59, (R)-N-(benzo[d]thiazol-5-yl)-1-((4-bromo-2,3-dihydrobenzofuran-5-yl)sulfonyl)pyrrolidine-3-carboxamide]
> 10 µM	31%	O=C(Nc1ccc2scnc2c1)[C@@H]1CCN(S(=O)(=O)c2ccc(Br)c3c2OCC3)C1 [Compound 60, (R)-N-(benzo[d]thiazol-5-yl)-1-((4-bromo-2,3-dihydrobenzofuran-7-yl)sulfonyl)pyrrolidine-3-carboxamide]
> 10 µM	60%	O=C(Nc1ccc2scnc2c1)C1CCN(S(=O)(=O)c2c(Cl)ccc3nonc23)CC1 [Compound 61, N-(benzo[d]thiazol-5-yl)-1-((5-chlorobenzo[c][1,2,5]oxadiazol-4-yl)sulfonyl)piperidine-4-carboxamide]
